Values after ≈ are worked out from the molar mass of the structure shown. Like-named read-outs stand apart in the source and are kept apart here.
Key:
HSV-2 [1] = assay: In vitro HSV-2 tests using published formulations of 1-docosanol with surfactants; format: cell-based, Herpes simplex virus type 2; details: published formulations with various surfactants
Excerpt: The alcohol intermediate, cis,cis,cis,cis,cis,cis-4,7,10,13,16,19-docosahexaenoic-1-ol obtained by reduction of DHA in the above series has the same chain-length as 1-docasonol, but has six conjugated-cis-double bonds for a stiff, elongated backbone, in contrast to a floppy backbone in saturated 1-docasanol.

[2] = cited from earlier work
[3] = tested on: cold sores caused by the herpes simplex virus; details: OTC cream; cited from earlier work
VZV = assay: CellTiter-Glo (Cytopathic effect/Toxicity) antiviral assay, U of Alabama / NIH; format: cell-based, Varicella zoster virus; details: for activity against the Varicella-Zoster virus: primary assays at the NIH
Excerpt: (§1) General Outline of in vitro biology Study: The overall goal of this study was to perform a preliminary evaluation of gross toxicity as well as antiviral effectiveness against HSV-1 and HSV-2, and VZV virus of several pharmaceutical preparations. The HSV-1 and HSV-2 antiviral activity in an in vitro infection system was studied, at the Louisiana State University, Health Sciences System, in New Orleans, and all three above at the University of Alabama, NIAID sponsored laboratories.

HSV-1 = assay: as above; format: cell-based, Herpes simplex virus type 1
Excerpt: as §1

HSV-2 [4] = assay: as above; format: cell-based, Herpes simplex virus type 2
Excerpt: as §1

HSV-1 McKrae = assay: McKrae viral yield reduction assay relative to mock treated controls, LSU; format: cell-based, Herpes simplex virus type 1
Excerpt: as §1
(§2) The yield reduction assay (YRA) was used in determining antiviral activity of test compounds such as JIVA Compounds, controls and standards. The virus yield reduction assay is a powerful technique for evaluating the efficacy of antiviral compounds. Monolayer cultures of mammalian cells were grown in 96-well microliter tissue culture plates and infected with virus. Test compounds were added and serially diluted directly with the plates. Following a cycle of virus replication, culture lysates were made and serially diluted in a separate set of uninfected cultures grown in microliter plates. The cultures were incubated, plaques were enumerated in wells containing […] plaques, and virus titers were calculated.

HSV-2 [5] = assay: Viral yield reduction assay relative to mock treated controls, LSU; format: cell-based, Herpes simplex virus type 2
Excerpt: as §1, §2

[6] = Gross visible toxicity (CC50), 48 hour continuous treatment, LSU; format: cell-based; details: African green monkey, Vero cell monolayers, tested at L (LSU-HSC)
Excerpt: as §1

HSV-2 [7] = assay: Plaque reduction and virus yield reduction assay (FIGS. 1-6); format: cell-based, Herpes simplex virus type 2; parameters: Mean virus titer: unit not given here
Protocol: as §2
(§3) The concentrations were done in duplicate ranging from 1 mM to 10 mM and the average value is plotted for each concentration. At 2 days post infection the number of plaques were counted. The next day, the wells were collected (media and cells) and titered in a plaque assay.

cells = assay: Toxicity to the cells seen in the plaque reduction assay (FIG. 1); format: cell-based
Protocol: as §3
FIG. 1: Both Compound 2 (JIVA-0042) and Compound 3 (JIVA-005) appeared to show toxicity at 10 mM, so even if the graphs show almost 100% reduction at this concentration, it is due to toxicity, perhaps cytostatic inhibition of the cells and thus very few or small plaques were observed. However, by 5 mM of Compound 2 (JIVA-0042), the cells look good (no toxicity) and >95% plaque reduction for Compound 2 and a 50% reduction for Compound 3 (JIVA-005), with the plaques still smaller than the control no drug plaques.

Aqueous solubility = format: physicochemical; details: water; at 3° C.
[8] = CellTiter-Glo toxicity (CC50), U of Alabama / NIH
Vero cell monolayers = assay: Gross visible toxicity (CC50), 48 hour continuous treatment, LSU; format: cell-based; details: tested at L (LSU-HSC)
Excerpt: as §1

HSV-2 [9] = assay: Viral yield reduction assay (YRA), Cincinnati Children's Hospital Medical Center; format: cell-based, Herpes simplex virus type 2
Protocol: as §2
(§4) Another advantage was noted of thiazolidinedione compounds in Formula (I) where R is H, and R1 is an omega-3 PUFA derivative derived from DHA, EPA or ALA were provided to the Cincinnati Children's Hospital Medical Center, for in vitro HSV-2 antiviral activity by the viral yield reduction assay method, (YRA). […] For the DHA derived (JIVA-004), a ^˜44% reduction in virus yield was detected at 0.1 mM, and 22% reduction was detected at 0.01 mM. […] The more water soluble sodium salt of JIVA-004, in the YRA method, was toxic at the highest concentrations tested (10 mM to 7.5 mM).

healthy cells = format: cell-based
Protocol: as §4

[10] = 10 mM, said to be due to toxicity
[11] = CC50, HSV-1 line, tested at A (U of Alabama)
[12] = CC50, HSV-2 line, tested at A (U of Alabama)
[13] = CC50, VZV line, tested at A (U of Alabama)
[14] = Human alphaherpesvirus 1, HSV-1, tested at A (U of Alabama), read-out: EC50
[15] = Human alphaherpesvirus 2, HSV-2, tested at A (U of Alabama), read-out: EC50
[16] = Human alphaherpesvirus 1, HSV-1, tested at L (LSU-HSC), read-out: EC50
[17] = Human alphaherpesvirus 2, HSV-2, tested at L (LSU-HSC), read-out: EC50
[18] = VZV, tested at A (U of Alabama), read-out: EC50
[19] = VZV line, tested at A (U of Alabama)
[20] = HSV-1, tested at L (LSU-HSC), read-out: EC50
[21] = HSV-2, tested at L (LSU-HSC), read-out: EC50

Structure (SMILES): CCCCCCCCCCCCCCCCCCCCCCO [1-docosanol, 1-Docosanol]
- antiviral activity (HSV-2 [1]): ineffective
- aqueous solubility [2]: near zero
- mean time of healing [3]: 4.1 days

Structure (SMILES): O=C1CSC(=O)N1 [JIVA-0042, 2,4-Thiazolidinedione]
- EC50 (VZV; Human alphaherpesvirus 3): > 30 µM
- EC50 (HSV-1; Human alphaherpesvirus 1): > 150 µM
- EC50 (HSV-2 [4]; Human alphaherpesvirus 2): > 150 µM
- EC50 (HSV-1 McKrae; Human alphaherpesvirus 1): ~625 µM
- EC50 (HSV-2 [5]; Human alphaherpesvirus 2): 1880 µM
- CC50 at 48 h ([6]; HSV-1 line): > 14000 µM
- CC50 at 48 h ([6]; HSV-2 line): > 14000 µM
- antiviral effect (HSV-2 [7]; 1 mM): no antiviral effect
- reduction in virus yield (HSV-2 [7]; 2.5 mM): 30%
- plaque reduction (HSV-2 [7]; 5 mM): > 95%
- plaque reduction (HSV-2 [7]; [10]): ~100%
- EC50 (HSV-2 [7]; Human alphaherpesvirus 2, read-out: calculated EC50): 2930 µM
- inhibition at 5000 µM (HSV-2 [7]; Human alphaherpesvirus 2, read-out: inhibition that can be contributed to Compound 2 activity): ~45%
- toxicity (cells; 5 mM): no toxicity
- toxicity (cells; 10 mM): toxicity
- solubility (Aqueous solubility): 30 mg/mL (≈ 256 mM)
- CC50 [8, 11]: > 150 µM
- CC50 [8, 12]: > 150 µM
- CC50 [8, 13]: 80 µM

Structure (SMILES): N=C1NC(=O)C(c2ccccc2Cl)S1 (centres unmarked) [JIVA-0046, RS-2-Imino-5-(2′-chlorophenyl) thiazolidine-4-one]
- EC50 (HSV-1; [14]): > 150 µM
- EC50 (HSV-2 [4]; [15]): > 150 µM
- EC50 (HSV-1 McKrae; [16]): 2000 µM
- EC50 (HSV-2 [5]; [17]): ~1000 µM
- CC50 at 48 h ([6]; HSV-1 line): ~1000 µM
- CC50 at 48 h ([6]; HSV-2 line): ~1000 µM
- melting point: 244 to 246 °C
- CC50 [8, 11]: > 150 µM
- CC50 [8, 12]: > 150 µM

Structure (SMILES): CN(C)C(=N)NC(=N)N.N=C1NC(=O)CS1 [JIVA-0049, Pseudothiohydantain Metforminate]
- EC50 (VZV; [18]): < 0.05 µM
- activity against the Varicella-Zoster virus (VZV): highly active
- EC50 (HSV-1; HSV-1, tested at N (NIH), read-out: EC50): > 300 µM
- CC50 ([8]; HSV-1 line, tested at N (NIH)): > 300 µM
- CC50 [8, 19]: ≥ 150 µM

Structure (SMILES): N=C(N)SC(C(=O)O)c1ccccc1 (centres unmarked) [JIVA-0045, RS-2-[Amino(imino)methylsulfenyl]-2-phenylacetic acid]
- EC50 (HSV-1; [14]): > 150 µM
- EC50 (HSV-2 [4]; [15]): > 150 µM
- EC50 (HSV-1 McKrae; [16]): 238 µM
- EC50 (HSV-2 [5]; [17]): ~750 µM
- CC50 at 48 h ([6]; HSV-1 line): 3600 µM
- CC50 at 48 h ([6]; HSV-2 line): 3600 µM
- melting point: 230 °C (dec.)
- CC50 [8, 11]: > 150 µM
- CC50 [8, 12]: > 150 µM

Structure (SMILES): CN(C)C(=N)NC(=N)N.Cl [Met.HCl, 1,1-dimethylbiguanide hydrochloride, reference compound]
- Mean virus titer (HSV-2 [7]; 1 mM): 5.98
- Mean virus titer (HSV-2 [7]; 2.5 mM): 6.05
- Mean virus titer (HSV-2 [7]; 5 mM): 5.76
- Mean virus titer (HSV-2 [7]; 7.5 mM): 4.97
- Mean virus titer (HSV-2 [7]; 10 mM): 4.32
- EC50 (HSV-2 [7]; Human alphaherpesvirus 2, read-out: estimated EC50): ~5000 µM

Structure (SMILES): CC1SC(=N)NC1=O (centres unmarked) [JIVA-0044, RS-2-Imino-5-methylthiazolidine-4-one]
- EC50 (HSV-1; [14]): > 150 µM
- EC50 (HSV-2 [4]; [15]): > 150 µM
- EC50 (HSV-1 McKrae; [16]): 1420 µM
- EC50 (HSV-2 [5]; [17]): 1400 µM
- CC50 at 48 h ([6]; HSV-1 line): > 39000 µM
- CC50 at 48 h ([6]; HSV-2 line): > 39000 µM
- melting point: 224 to 228 °C (dec.)
- CC50 [8, 11]: > 150 µM
- CC50 [8, 12]: > 150 µM

Structure (SMILES): CC/C=C\C/C=C\C/C=C\C/C=C\C/C=C\C/C=C\CCCO [DHA derived primary alcohol, cis,cis,cis,cis,cis,cis-4,7,10,13,16,19-docosahexaenoic-1-ol]
- antiviral activity (HSV-2 [1]): ineffective

Structure (SMILES): NC1=NC(=O)CS1 [JIVA-0048, Pseudothiohydantoin]
- EC50 (HSV-1 McKrae; [20]): 296 µM
- EC50 (HSV-2 [5]; [21]): 76 µM
- CC50 (Vero cell monolayers; HSV-1 line): 19400 µM
- CC50 (Vero cell monolayers; HSV-2 line): 19400 µM

Structure (SMILES): CN(C)C(=N)NC(=N)N.O=C1CSC(=O)N1 [JIVA-005]
- EC50 (VZV; [18]): 0.09 µM
- activity against the Varicella-Zoster virus (VZV): highly active
- EC50 (HSV-1; HSV-1, tested at A (U of Alabama), read-out: EC50): > 150 µM
- EC50 (HSV-2 [4]; HSV-2, tested at A (U of Alabama), read-out: EC50): > 150 µM
- EC50 (HSV-1 McKrae; [20]): ~625 µM
- EC50 (HSV-2 [5]; [21]): ~700 µM
- CC50 (Vero cell monolayers; HSV-2 line): > 10000 µM
- Mean virus titer (HSV-2 [7]; 1 mM): 6.24
- Mean virus titer (HSV-2 [7]; 2.5 mM): 5.90
- reduction in virus yield (HSV-2 [7]; 2.5 mM): very little reduction
- Mean virus titer (HSV-2 [7]; 5 mM): 4.92
- plaque reduction (HSV-2 [7]; 5 mM): 50%
- Mean virus titer (HSV-2 [7]; 7.5 mM): 3.86
- Mean virus titer (HSV-2 [7]; 10 mM): 2.87
- plaque reduction (HSV-2 [7]; [10]): ~100%
- EC50 (HSV-2 [7]; Excel, best fit line (FIGS. 4 and 5), read-out: estimated EC50): ~4000 µM
- EC50 (HSV-2 [7]; Prism program (FIG. 6), read-out: calculated EC50): 5040 µM
- toxicity (cells; 10 mM): toxicity
- CC50 ([8]; HSV-1 line, tested at A (U of Alabama)): > 150 µM
- CC50 ([8]; HSV-2 line, tested at A (U of Alabama)): > 150 µM
- CC50 [8, 19]: > 150 µM

Structure (SMILES): N=C(N)SC(F)C(=O)O (centres unmarked) [JIVA-0043, RS-(Carbamimidoylsulfanyl)(fluoro)acetic acid]
- EC50 (VZV; Human alphaherpesvirus 3, VZV, tested at A (U of Alabama), read-out: EC50): < 0.05 µM
- activity against the Varicella-Zoster virus (VZV): highly active
- EC50 (HSV-1; [14]): > 150 µM
- EC50 (HSV-2 [4]; [15]): > 150 µM
- EC50 (HSV-1 McKrae; [16]): > 150 µM
- EC50 (HSV-2 [5]; [17]): > 150 µM
- CC50 at 48 h ([6]; HSV-1 line): ~1000 µM
- CC50 at 48 h ([6]; HSV-2 line): > 1000 µM
- melting point: 178 °C
- CC50 [8, 11]: > 150 µM
- CC50 [8, 12]: > 150 µM
- CC50 [8, 13]: > 150 µM

Structure (SMILES): CC/C=C\C/C=C\C/C=C\C/C=C\C/C=C\C/C=C\CCCC1SC(=O)NC1=O (centres unmarked) [JIVA-004, RS-5-((4Z,7Z,10Z,13Z,16Z,19Z)docosa-4,7,10,13,16,19-hexaen-1-yl)thiazolidine-2,4-dione]
- reduction in virus yield (HSV-2 [9]; 0.01 mM): 22%
- reduction in virus yield (HSV-2 [9]; 0.1 mM): ~44%
- conservative estimated toxicity index CC50 (healthy cells): 300 µM

Reference: patent US10646477B1, “5-substituted 2,4-thiazolidinediones (thiohydantoins), pseudothiohydantoins, and propseudothiohydantoins for use as antiviral agents” (Jiva Pharma, Inc., priority 2015, dated 2020)
